Where a name gives a salt, the structure may show the parent alone. Read-outs that look alike come from different tables or passages of the source.
Experiments:
h5-HT4b = biological target: T1, h5-HT4b (Homo sapiens, UniProt Q13639); assay: 5HT4 antagonism: [3H]GR113808 binding to membranes of h5-HT4b-HEK 293 clone 9 cells; conditions: 30 min at 25° C.
T1 construct: expressed in transfected cells; host or cells: HEK 293 (clone 9), membrane preparation
Method: The cells were then scraped from the plates and suspended in 50 mM Tris-HCl buffer, pH 7.4 and harvested by centrifugation at 23,500 rpm for 10 minutes. The pellet was resuspended in 5 mM Tris-HCl, pH 7.4 and homogenized with an Ultra Turrax homogenizer. The membranes were collected by centrifugation at 30,000 rpm for 20 min, resuspended in 50 mM Tris-HCl pH 7.4 and stored at −80° C. […] 50 μl of 10% DMSO was added for total binding. 50 μl of 1 μM of (+)-trans-(1-butyl-3-hydroxy-4-piperidinyl)methyl 8-amino-7-chloro-2,3-dihydro-1,4-benzodioxin-5-carboxylate (a proprietary 5HT4 agonist of Janssen Pharmaceutica) was added for determination of non-specific binding. The [^3H]GR113808 assay buffer was 50 mM HEPES-NaOH, pH 7.4. The mixtures were incubated for 30 min at 25° C. The incubation was terminated by filtration over a Unifilter 96 GF/B presoaked in 0.1% polyethylenimine, followed by six washing steps with 50 mM HEPES-NaOH, pH 7.4.

[1] = Metabolic stability: incubation with liver microsomes and NADPH-generating system, LC-MS; type: in vitro ADME; conditions: compound 5 μM, microsomes 1 mg/ml, 37 degrees Celsius
Method: Sub-cellular tissue preparations were made according to Gorrod et al. (Xenobiotica 5: 453-462, 1975) by centrifugal separation after mechanical homogenization of tissue. Liver tissue was rinsed in ice-cold 0.1 M Tris-HCl (pH 7.4) buffer to wash excess blood. Tissue was then blotted dry, weighed and chopped coarsely using surgical scissors. The tissue pieces were homogenized in 3 volumes of ice-cold 0.1 M phosphate buffer (pH 7.4).
Tissue homogenates were centrifuged at 9000×g for 20 minutes at 4° C. The resulting supernatant was stored at −80° C. and is designated ‘S9’.
The S9 fraction can be further centrifuged at 100.000×g for 60 minutes (4° C.). The resulting supernatant was carefully aspirated, aliquoted and designated ‘cytosol’. The pellet was re-suspended in 0.1 M phosphate buffer (pH 7.4) in a final volume of 1 ml per 0.5 g original tissue weight and designated ‘microsomes’.
All sub-cellular fractions were aliquoted, immediately frozen in liquid nitrogen and stored at −80° C. until use.
Control samples contained the same material but the microsomes were replaced by heat inactivated (10 minutes at 95 degrees Celsius) microsomes. Recovery of the compounds in the control samples was always 100%.
The mixtures were preincubated for 5 minutes at 37 degrees Celsius. The reaction was started at time point zero (t=0) by addition of 0.8 mM NADP and the samples were incubated for 60 minutes (t=60). The reaction was terminated by the addition of 2 volumes of DMSO. Then the samples were centrifuged for 10 minutes at 900×g and the supernatants were stored at room temperature for no longer as 24 hours before analysis. All incubations were performed in duplo. Analysis of the supernatants was performed with LC-MS analysis. Elution of the samples was performed on a Xterra MS C18 (50×4.6 mm, 5 μm, Waters, US). An Alliance 2790 (Supplier: Waters, US) HPLC system was used. Elution was with buffer A (25 mM ammoniumacetate (pH 5.2) in H2O/acetonitrile (95/5)), solvent B being acetonitrile and solvent C methanol at a flow rate of 2.4 ml/min. The gradient employed was increasing the organic phase concentration from 0% over 50% B and 50% C in 5 min up to 100% B in 1 minute in a linear fashion and organic phase concentration was kept stationary for an additional 1.5 minutes. Total injection volume of the samples was 25 μl.
A Quatro triple quadrupole mass spectrometer fitted with and ESP source was used as detector. The source and the desolvation temperature were set at 120 and 350° C. respectively and nitrogen was used as nebuliser and drying gas. Data were acquired in positive scan mode (single ion reaction). Cone voltage was set at 10 V and the dwell time was 1 second.
Metabolic stability was expressed as % metabolism of the compound after 60 minutes (equation given as example) of incubation in the presence of active microsomes (E(act))

[2] = displacement of 0.1 nM [3H]GR113808, membranes of h5-HT4b-HEK 293 cells, read-out: pIC50 (converted)

T1 sequence (Q13639 whole entry): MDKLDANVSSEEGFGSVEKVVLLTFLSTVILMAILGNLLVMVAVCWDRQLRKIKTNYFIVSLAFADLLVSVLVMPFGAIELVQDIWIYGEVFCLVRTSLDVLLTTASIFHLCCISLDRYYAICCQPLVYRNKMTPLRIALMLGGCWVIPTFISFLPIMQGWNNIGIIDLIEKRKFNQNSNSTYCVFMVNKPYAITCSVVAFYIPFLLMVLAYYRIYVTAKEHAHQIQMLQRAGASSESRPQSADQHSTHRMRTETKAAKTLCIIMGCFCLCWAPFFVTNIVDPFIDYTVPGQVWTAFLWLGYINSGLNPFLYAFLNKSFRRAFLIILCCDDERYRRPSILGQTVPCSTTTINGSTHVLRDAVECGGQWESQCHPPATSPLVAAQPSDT

SMILES	IC50 (h5-HT4b; [2])	% metabolised compound after 60 minutes [1]	melting point	IC50 (h5-HT4b; pIC50, displacement of 0.1 nM [3H]GR113808, membranes of h5-HT4b-HEK 293 cells)
CNS(=O)(=O)CCCN1CC[C@@H](CNC(=O)c2ccc(C)c3c2OCCCO3)[C@H](O)C1 [Compound 34]	1.15 nM			
Cc1cc2c(c(C(=O)NC[C@@H]3CCN(CCS(N)(=O)=O)C[C@H]3O)c1)OCCCO2 [Compound 25]	8.51 nM	8.5%		
CO[C@@H]1CN(CCCCS(N)(=O)=O)CC[C@H]1CNC(=O)c1cc(F)cc2c1OCCCO2 (relative stereo) [Compound 44]	3.72 nM	27%		
Cc1cc2c(c(C(=O)NC[C@@H]3CCN(CCCS(=O)(=O)NC(C)C)C[C@H]3O)c1)OCCCO2 (relative stereo) [Compound 11]	3.98 nM			
Cc1ccc(C(=O)NC[C@@H]2CCN(CCCC(=O)NS(C)(=O)=O)C[C@H]2O)c2c1OCCCO2 [Compound 27]	12 nM	5%		
COc1ccc(C(=O)NCC2CCN(CCCCS(N)(=O)=O)CC2OC)c2c1OCCO2 (stereo not shown) [Compound 6]	28.8 nM	9%		
NS(=O)(=O)CCCCN1CC[C@@H](CNC(=O)c2cc(F)cc3c2OCCO3)[C@H](O)C1 [Compound 7]	1.86 nM	3%		
NS(=O)(=O)CCCCN1CCC(CNC(=O)c2cc(Cl)c(Br)c3c2OCCCO3)C(O)C1 (stereo not shown) [Compound 31]	0.891 nM	18%		
NS(=O)(=O)CCCCN1CC[C@@H](CNC(=O)c2cc(F)cc3c2OCCCO3)[C@H](O)C1 [Compound 35]	0.407 nM	15%		
CS(=O)(=O)NC(=O)CCCN1CC[C@@H](CNC(=O)c2cc(Cl)cc3c2OCCCO3)[C@H](O)C1 [Compound 15]	35.5 nM	36%	110 °C	
NS(=O)(=O)CCCCN1CCC(CNC(=O)c2cc(F)cc3c2OCCCO3)C(O)C1 (stereo not shown) [Compound 39]	12.6 nM	2%		
COc1ccc(C(=O)NCC2(O)CCN(CCCCS(N)(=O)=O)CC2)c2c1OCCCO2 [Compound 47]	100 nM	0%		
NS(=O)(=O)CCCCN1CC[C@@H](CNC(=O)c2cc(Cl)c(Cl)c3c2OCCCO3)[C@H](O)C1 (relative stereo) [Compound 30]	1.7 nM	12%		
Nc1cc2c(c(C(=O)NC[C@@H]3CCN(CCCS(N)(=O)=O)C[C@H]3O)c1)OCCCO2 (relative stereo) [Compound 8]	50.1 nM		186 °C	
COC1CN(CCCCS(N)(=O)=O)CCC1CNC(=O)c1cc(Cl)c(Cl)c2c1OCCCO2 (stereo not shown) [Compound 42]	1.51 nM			
Cc1ccc(C(=O)NCC2CCN(CCCS(=O)(=O)NC(C)C)CC2O)c2c1OCCCO2 (stereo not shown) [Compound 13]	3.39 nM			
COC1CN(CCCCS(N)(=O)=O)CCC1CNC(=O)c1cc(Cl)cc2c1OCCCO2 (stereo not shown) [Compound 45]	1.38 nM			
Cc1cc2c(c(C(=O)NCC3CCN(CCCS(N)(=O)=O)CC3O)c1)OCCCO2 (stereo not shown) [Compound 19]	3.39 nM	14%		
Cc1ccc(C(=O)NC[C@@H]2CCN(CCCC(=O)NS(C)(=O)=O)C[C@H]2O)c2c1OCCCO2 (as salt: hydrochloride) [Compound 27]			142 °C	

SMILES	IC50 (h5-HT4b; [2])	% metabolised compound after 60 minutes [1]	melting point	IC50 (h5-HT4b; pIC50, displacement of 0.1 nM [3H]GR113808, membranes of h5-HT4b-HEK 293 cells)
CNS(=O)(=O)CCCN1CC[C@@H](CNC(=O)c2cc(Cl)cc3c2OCCCO3)[C@H](O)C1 (relative stereo) [Compound 33]	2.19 nM			
NS(=O)(=O)CCN1CC[C@@H](CNC(=O)c2cc(Cl)cc3c2OCCCO3)[C@H](O)C1 [Compound 22]		28.5%	162 °C	5.37 nM
COC1CN(CCCS(N)(=O)=O)CCC1CNC(=O)c1cc(C#N)cc2c1OCCCO2 (stereo not shown) [Compound 41]	56.2 nM			
CNS(=O)(=O)CCCN1CCC(CNC(=O)c2cc(C)cc3c2OCCCO3)C(O)C1 (stereo not shown) [Compound 24]	2.88 nM	53%		
Cc1ccc(C(=O)NCC2CCN(CCCS(=O)(=O)Nc3ccccc3)CC2O)c2c1OCCCO2 (stereo not shown) [Compound 10]	1.29 nM			
COC1CN(CCCS(N)(=O)=O)CCC1CNC(=O)c1cc(F)cc2c1OCCCO2 (stereo not shown) [Compound 46]	4.17 nM			
Cc1cc2c(c(C(=O)NCC3CCN(CCCCS(N)(=O)=O)CC3O)c1)OCCCO2 (stereo not shown) [Compound 20]	4.68 nM	2%		
Cc1cc2c(c(C(=O)NCC3CCN(CCCCS(N)(=O)=O)CC3O)c1)OCCCO2 (stereo not shown) [Compound 38]	11.2 nM	3%		
Cc1cc2c(c(C(=O)NC[C@@H]3CCN(CCCS(=O)(=O)Nc4ccccc4)C[C@H]3O)c1)OCCCO2 (relative stereo) [Compound 12]	1.62 nM			
NS(=O)(=O)CCCN1CCC(CNC(=O)c2cc(Cl)cc3c2OCCCO3)C(O)C1 (stereo not shown) [Compound 21]	3.02 nM	21%		
CC(C)NS(=O)(=O)CCCN1CCC(CNC(=O)c2cc(Cl)cc3c2OCCCO3)C(O)C1 (stereo not shown) [Compound 14]	1.95 nM			
COc1ccc(C(=O)NCC2CCN(CCCCS(N)(=O)=O)CC2O)c2c1OCCCO2 (stereo not shown) [Compound 40]	158 nM	0%		
Cc1ccc(C(=O)NCC2CCN(CCCS(N)(=O)=O)CC2O)c2c1OCCCO2 (stereo not shown) [Compound 18]	5.25 nM	7%		
COC1CN(CCCCS(N)(=O)=O)CCC1CNC(=O)c1cc(Cl)c(Br)c2c1OCCCO2 (stereo not shown) [Compound 43]	1.7 nM			
Cc1ccc(C(=O)NC[C@@H]2CCN(CCS(N)(=O)=O)C[C@H]2O)c2c1OCCCO2 [Compound 23]	5.75 nM	8%		
NS(=O)(=O)CCCCN1CC[C@@H](CNC(=O)c2cc(Cl)cc3c2OCCCO3)[C@H](O)C1 [Compound 26]	0.676 nM	13%		
Cc1cc2c(c(C(=O)NCC3(O)CCN(CCCCS(N)(=O)=O)CC3)c1)OCCCO2 [Compound 48]	20.9 nM	6%		
O=C(NCC1CCN(CCCS(=O)(=O)Nc2ccccc2)CC1O)c1cc(Cl)cc2c1OCCCO2 (stereo not shown) [Compound 17]	1.78 nM			
COc1ccc(C(=O)NC[C@@H]2CCN(CCCCS(N)(=O)=O)C[C@H]2O)c2c1OCCCO2 [Compound 32]	3.63 nM	0%		

Reference: US8334304B2, “Aminosulfonyl substituted 4-(aminomethyl)-piperidine benzamides as 5HT4-antagonists” (Janssen Pharmaceutica N.V., priority 2003, dated 2012)
